Laboratory results reported in the supplement of paper PMC11451515.

System: NOMO1
Experiment: cell viability relative to DMSO control; higher = less cytotoxic
Details: 48 h
In short: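 NOMO1 or SEM (500 cells/well) or P12-Ichikawa (1000 cells/well) leukemia cells were adapted for at least four passages in each medium. They were seeded in 1536-well plates (5 μl) and pin-dosed with library compounds in DMSO over an 11-point threefold series, 47 μM to 0.79 nM. CellTiter-Glo One luminescence was read after 48 h at 37°C. Viability is the per-plate percentage relative to DMSO wells, with cell-free wells as background.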

[1] = HPLM + 10% dialyzed FBS, 0.000781 µM
[2] = HPLM + 10% dialyzed FBS, 0.00234 µM
[3] = HPLM + 10% dialyzed FBS, 0.00702 µM
[4] = HPLM + 10% dialyzed FBS, 0.0211 µM
[5] = HPLM + 10% dialyzed FBS, 0.0632 µM
[6] = HPLM + 10% dialyzed FBS, 0.19 µM
[7] = HPLM + 10% dialyzed FBS, 0.569 µM
[8] = HPLM + 10% dialyzed FBS, 1.71 µM
[9] = HPLM + 10% dialyzed FBS, 5.12 µM
[10] = HPLM + 10% dialyzed FBS, 15.4 µM
[11] = HPLM + 10% dialyzed FBS, 46.1 µM
[12] = RPMI 5 mM glucose + 10% FBS, 0.000781 µM
[13] = RPMI 5 mM glucose + 10% FBS, 0.00234 µM
[14] = RPMI 5 mM glucose + 10% FBS, 0.00702 µM
[15] = RPMI 5 mM glucose + 10% FBS, 0.0211 µM
[16] = RPMI 5 mM glucose + 10% FBS, 0.0632 µM
[17] = RPMI 5 mM glucose + 10% FBS, 0.19 µM
[18] = RPMI 5 mM glucose + 10% FBS, 0.569 µM
[19] = RPMI 5 mM glucose + 10% FBS, 1.71 µM
[20] = RPMI 5 mM glucose + 10% FBS, 5.12 µM
[21] = RPMI 5 mM glucose + 10% FBS, 15.4 µM
[22] = RPMI 5 mM glucose + 10% FBS, 46.1 µM
[23] = RPMI 5 mM glucose + 10% dialyzed FBS, 0.000781 µM
[24] = RPMI 5 mM glucose + 10% dialyzed FBS, 0.00234 µM
[25] = RPMI 5 mM glucose + 10% dialyzed FBS, 0.00702 µM
[26] = RPMI 5 mM glucose + 10% dialyzed FBS, 0.0211 µM
[27] = RPMI 5 mM glucose + 10% dialyzed FBS, 0.0632 µM
[28] = RPMI 5 mM glucose + 10% dialyzed FBS, 0.19 µM
[29] = RPMI 5 mM glucose + 10% dialyzed FBS, 0.569 µM
[30] = RPMI 5 mM glucose + 10% dialyzed FBS, 1.71 µM
[31] = RPMI 5 mM glucose + 10% dialyzed FBS, 5.12 µM
[32] = RPMI 5 mM glucose + 10% dialyzed FBS, 15.4 µM
[33] = RPMI 5 mM glucose + 10% dialyzed FBS, 46.1 µM

| Compound | cell viability [1] | cell viability [2] | cell viability [3] | cell viability [4] | cell viability [5] | cell viability [6] | cell viability [7] | cell viability [8] | cell viability [9] | cell viability [10] | cell viability [11] | cell viability [12] | cell viability [13] | cell viability [14] | cell viability [15] | cell viability [16] | cell viability [17] | cell viability [18] | cell viability [19] | cell viability [20] | cell viability [21] | cell viability [22] | cell viability [23] | cell viability [24] | cell viability [25] | cell viability [26] | cell viability [27] | cell viability [28] | cell viability [29] | cell viability [30] | cell viability [31] | cell viability [32] | cell viability [33] |
| --- | --- | --- | --- | --- | --- | --- | --- | --- | --- | --- | --- | --- | --- | --- | --- | --- | --- | --- | --- | --- | --- | --- | --- | --- | --- | --- | --- | --- | --- | --- | --- | --- | --- |
| CC(C)(C)c1cc(C=C(C#N)C#N)cc(Br)c1O | 86% | 114% | 124% | 112% | 112% | 122% | 122% | 113% | 113% | 103% | 94.9% | 89.9% | 115% | 116% | 126% | 103% | 106% | 121% | 132% | 107% | 109% | 100% | 84.5% | 101% | 105% | 103% | 105% | 108% | 125% | 115% | 116% | 116% | 103% |
| Cn1cc(-c2ccc3nnc(C(F)(F)c4ccc5ncccc5c4)n3n2)cn1 | 115% | 99.1% | 97.5% | 107% | 101% | 106% | 105% | 101% | 95.4% | 103% | 69.3% | 110% | 106% | 135% | 109% | 107% | 106% | 99.6% | 94.9% | 106% | 96.6% | 87.2% | 87.3% | 98.4% | 111% | 97.8% | 99.2% | 98.6% | 119% | 108% | 99.5% | 96.2% | 81.3% |
| CNC1[C@@H](O)C(O[C@@H]2C(O)C(O[C@H]3O[C@H]([C@@H](C)NC)CC[C@H]3N)[C@@H](N)C[C@H]2N)OC[C@]1(C)O (stereo partly specified) | 98.9% | 102% | 104% | 106% | 108% | 98.1% | 106% | 87.4% | 85.3% | 91.4% | 63.7% | 93.4% | 99.6% | 93.2% | 97.3% | 91.3% | 91.2% | 91.2% | 98.9% | 87.7% | 92.8% | 96.7% | 92.4% | 84.5% | 87.1% | 81.2% | 88.5% | 87.7% | 92.1% | 90% | 83.1% | 89.8% | 76.5% |
| CC(=O)Nc1ccc([C@H](C)C(=O)Nc2ncc(C(C)C)s2)cc1 | 109% | 123% | 97.2% | 99% | 106% | 103% | 119% | 96.8% | 79.1% | 6.43% | 4.34% | 88.4% | 99.9% | 84.9% | 90.8% | 110% | 93.6% | 104% | 84.5% | 44.6% | 9.84% | 4.44% | 104% | 93.5% | 96.3% | 100% | 95.2% | 92% | 95.4% | 104% | 68.2% | 8.22% | 4.09% |
| OCc1ccc(-c2nn(Cc3ccccc3)c3ccccc23)o1 | 120% | 101% | 120% | 127% | 108% | 101% | 111% | 64.6% | 91.6% | 38.5% | 9% | 104% | 111% | 104% | 102% | 95.4% | 96.4% | 96.8% | 93.4% | 98.6% | 38% | 8.67% | 110% | 105% | 105% | 113% | 107% | 105% | 107% | 89.6% | 81.6% | 42.4% | 7.56% |
| OC[C@H](Cc1ccccc1)Nc1nc(Oc2ccc3c(c2)CCC3)nc2c1ncn2Cc1ccc(-c2ccccc2)cc1 | 95.3% | 100% | 83.5% | 123% | 86.9% | 98.5% | 108% | 88.6% | 99.5% | 87.2% | 96.7% | 79.7% | 83.2% | 84.8% | 96.4% | 102% | 89.7% | 90.3% | 92.2% | 98.8% | 90.5% | 90.2% | 90.7% | 84% | 102% | 95.6% | 98.5% | 101% | 116% | 96.7% | 100% | 114% | 96.3% |
| CO[C@H]1C[C@@H]2CC[C@@H](C)[C@@](O)(O2)C(=O)C(=O)N2CCCC[C@H]2C(=O)O[C@H]([C@H](C)C[C@@H]2CC[C@@H](OC(=O)C(C)(CO)CO)[C@H](OC)C2)CC(=O)[C@H](C)/C=C(\C)[C@@H](O)[C@@H](OC)C(=O)[C@H](C)C[C@H](C)/C=C/C=C/C=C/1C | 91.2% | 113% | 105% | 98.5% | 93.4% | 102% | 98.6% | 92.8% | 93.9% | 82.1% | 64.7% | 108% | 108% | 114% | 117% | 98.3% | 113% | 110% | 110% | 77% | 74.5% | 60.3% | 96.1% | 115% | 106% | 103% | 108% | 101% | 101% | 108% | 93.2% | 71.6% | 64.5% |
